From patent publication US10131652B2, “Pyrimidinyloxy benzene derivatives as herbicides” (E. I. DU PONT DE NEMOURS AND COMPANY, priority 2014, dated 2018)

Legend:
Assay in all cases: Test F pre-/postemergence plant response
Assay type in all cases: in vivo
Conditions in all cases: scale 0 to 100
[1] = tested on: surinam grass (Brachiaria decumbens)
Procedure, shortened: (§1)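 In a greenhouse, compounds carried in a non-phytotoxic surfactant-containing solvent mixture were applied to soil at planting and to young 1- to 4-leaf plants. About two to three weeks (14 to 21 days) afterward, each species was compared with controls and rated visually from 0 to 100.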

[2] = tested on: waterhemp (common waterhemp, Amaranthus rudis)
Procedure, shortened: as §1

[3] = tested on: barnyardgrass (Echinochloa crus-galli)
Procedure, shortened: as §1

[4] = tested on: yellow nutsedge (Cyperus esculentus)
Procedure, shortened: as §1

[5] = tested on: ragweed (common ragweed, Ambrosia elatior)
Procedure, shortened: as §1

[6] = tested on: hairy beggarticks (Bidens pilosa)
Procedure, shortened: as §1

[7] = tested on: velvetleaf (Abutilon theophrasti)
Procedure, shortened: as §1

[8] = tested on: lambsquarters (Chenopodium album)
Procedure, shortened: as §1

[9] = tested on: corn (Zea mays)
Procedure, shortened: as §1

[10] = tested on: soybean (Glycine max)
Procedure, shortened: as §1

[11] = tested on: dayflower (Virginia (VA) dayflower, Commelina virginica)
Procedure, shortened: as §1

[12] = tested on: palmer pigweed (Amaranthus palmeri)
Procedure, shortened: as §1

[13] = tested on: Italian ryegrass (Lolium multiflorum)
Procedure, shortened: as §1

[14] = tested on: sandbur (southern sandbur, Cenchrus echinatus)
Procedure, shortened: as §1

[15] = tested on: arrowleaf sida (Sida rhombifolia)
Procedure, shortened: as §1

[16] = tested on: goosegrass (Eleusine indica)
Procedure, shortened: as §1

CC(F)(F)c1cc(-c2ccccc2Oc2ncc(Br)cn2)no1 [Compound 149]
35: Plant response rating, Waterhemp ([2]; 16 g ai/ha Preemergence) | Plant response rating, Barnyardgrass ([3]; 125 g ai/ha Preemergence) | Plant response rating, Ragweed ([5]; 125 g ai/ha Postemergence) | Plant response rating, Ragweed ([5]; Preemergence) | Plant response rating, Arrowleaf Sida ([15]; 31 g ai/ha Preemergence)
98: Plant response rating, Waterhemp ([2]; 125 g ai/ha Postemergence) | Plant response rating, Pigweed, Palmer ([12]; 62 g ai/ha Postemergence) | Plant response rating, Arrowleaf Sida ([15]; 125 g ai/ha Postemergence)
15: Plant response rating, Surinam Grass ([1]; 125 g ai/ha Preemergence) | Plant response rating, Surinam Grass ([1]; Preemergence) | Plant response rating, Barnyardgrass ([3]; 62 g ai/ha Preemergence) | Plant response rating, Nutsedge, Yellow ([4]; 125 g ai/ha Preemergence) | Plant response rating, Corn ([9]; 125 g ai/ha Postemergence) | Plant response rating, Sandbur ([14]; 62 g ai/ha Postemergence)
60: Plant response rating, Goosegrass ([16]; 125 g ai/ha Preemergence)
20: Plant response rating, Ragweed ([5]; 16 g ai/ha Preemergence) | Plant response rating, Ragweed ([5]; 125 g ai/ha Preemergence) | Plant response rating, Dayflower, VA ([11]; 31 g ai/ha Postemergence) | Plant response rating, Ryegrass, Italian ([13]; Preemergence)
10: Plant response rating, Barnyardgrass ([3]; 62 g ai/ha Postemergence) | Plant response rating, Barnyardgrass ([3]; 125 g ai/ha Postemergence) | Plant response rating, Ragweed ([5]; 16 g ai/ha Postemergence) | Plant response rating, Velvetleaf ([7]; 16 g ai/ha Preemergence) | Plant response rating, Corn ([9]; 31 g ai/ha Postemergence) | Plant response rating, Corn ([9]; 62 g ai/ha Postemergence) | Plant response rating, Dayflower, VA ([11]; 16 g ai/ha Postemergence) | Plant response rating, Ryegrass, Italian ([13]; 31 g ai/ha Postemergence) | Plant response rating, Ryegrass, Italian ([13]; 62 g ai/ha Postemergence) | Plant response rating, Sandbur ([14]; 125 g ai/ha Postemergence) | Plant response rating, Sandbur ([14]; 125 g ai/ha Preemergence)
75: Plant response rating, Arrowleaf Sida ([15]; 16 g ai/ha Postemergence)
50: Plant response rating, Beggarticks ([6]; 125 g ai/ha Postemergence) | Plant response rating, Soybean ([10]; 16 g ai/ha Postemergence) | Plant response rating, Dayflower, VA ([11]; 125 g ai/ha Postemergence)
5: Plant response rating, Barnyardgrass ([3]; 31 g ai/ha Postemergence) | Plant response rating, Beggarticks ([6]; 16 g ai/ha Postemergence) | Plant response rating, Dayflower, VA ([11]; 62 g ai/ha Preemergence) | Plant response rating, Ryegrass, Italian ([13]; 125 g ai/ha Postemergence) | Plant response rating, Sandbur ([14]; 31 g ai/ha Postemergence)
25: Plant response rating, Ragweed ([5]; 31 g ai/ha Preemergence) | Plant response rating, Pigweed, Palmer ([12]; 16 g ai/ha Preemergence)
100: Plant response rating, Waterhemp ([2]; 31 g ai/ha Preemergence) | Plant response rating, Waterhemp ([2]; 125 g ai/ha Preemergence) | Plant response rating, Waterhemp ([2]; Preemergence) | Plant response rating, Velvetleaf ([7]; 125 g ai/ha Preemergence) | Plant response rating, Lambsquarters ([8]; 125 g ai/ha Preemergence) | Plant response rating, Lambsquarters ([8]; Preemergence) | Plant response rating, Pigweed, Palmer ([12]; 125 g ai/ha Postemergence) | Plant response rating, Pigweed, Palmer ([12]; 125 g ai/ha Preemergence) | Plant response rating, Pigweed, Palmer ([12]; Preemergence) | Plant response rating, Arrowleaf Sida ([15]; 125 g ai/ha Preemergence)
65: Plant response rating, Pigweed, Palmer ([12]; 16 g ai/ha Postemergence) | Plant response rating, Arrowleaf Sida ([15]; 62 g ai/ha Preemergence)
40: Plant response rating, Ragweed ([5]; 31 g ai/ha Postemergence) | Plant response rating, Beggarticks ([6]; 62 g ai/ha Postemergence) | Plant response rating, Dayflower, VA ([11]; 62 g ai/ha Postemergence) | Plant response rating, Dayflower, VA ([11]; 125 g ai/ha Preemergence) | Plant response rating, Ryegrass, Italian ([13]; 125 g ai/ha Preemergence) | Plant response rating, Goosegrass ([16]; Preemergence)
95: Plant response rating, Waterhemp ([2]; 31 g ai/ha Postemergence) | Plant response rating, Waterhemp ([2]; 62 g ai/ha Postemergence) | Plant response rating, Pigweed, Palmer ([12]; 31 g ai/ha Postemergence) | Plant response rating, Arrowleaf Sida ([15]; 62 g ai/ha Postemergence)
90: Plant response rating, Soybean ([10]; 62 g ai/ha Postemergence) | Plant response rating, Soybean ([10]; 125 g ai/ha Postemergence) | Plant response rating, Pigweed, Palmer ([12]; 31 g ai/ha Preemergence)
85: Plant response rating, Waterhemp ([2]; 16 g ai/ha Postemergence) | Plant response rating, Velvetleaf ([7]; Preemergence) | Plant response rating, Soybean ([10]; 31 g ai/ha Postemergence) | Plant response rating, Arrowleaf Sida ([15]; 31 g ai/ha Postemergence)
70: Plant response rating, Velvetleaf ([7]; 31 g ai/ha Preemergence)
0: Plant response rating, Surinam Grass ([1]; 16 g ai/ha Preemergence) | Plant response rating, Surinam Grass ([1]; 31 g ai/ha Preemergence) | Plant response rating, Barnyardgrass ([3]; 16 g ai/ha Postemergence) | Plant response rating, Barnyardgrass ([3]; 16 g ai/ha Preemergence) | Plant response rating, Barnyardgrass ([3]; 31 g ai/ha Preemergence) | Plant response rating, Nutsedge, Yellow ([4]; 16 g ai/ha Preemergence) | Plant response rating, Nutsedge, Yellow ([4]; 31 g ai/ha Preemergence) | Plant response rating, Nutsedge, Yellow ([4]; Preemergence) | Plant response rating, Beggarticks ([6]; 16 g ai/ha Preemergence) | Plant response rating, Beggarticks ([6]; 31 g ai/ha Preemergence) | Plant response rating, Beggarticks ([6]; 62 g ai/ha Preemergence) | Plant response rating, Beggarticks ([6]; 125 g ai/ha Preemergence) | Plant response rating, Lambsquarters ([8]; 31 g ai/ha Preemergence) | Plant response rating, Corn ([9]; 16 g ai/ha Postemergence) | Plant response rating, Corn ([9]; 16 g ai/ha Preemergence) | Plant response rating, Corn ([9]; 31 g ai/ha Preemergence) | Plant response rating, Corn ([9]; 62 g ai/ha Preemergence) | Plant response rating, Corn ([9]; 125 g ai/ha Preemergence) | Plant response rating, Soybean ([10]; 16 g ai/ha Preemergence) | Plant response rating, Soybean ([10]; 31 g ai/ha Preemergence) | Plant response rating, Soybean ([10]; Preemergence) | Plant response rating, Dayflower, VA ([11]; 16 g ai/ha Preemergence) | Plant response rating, Dayflower, VA ([11]; 31 g ai/ha Preemergence) | Plant response rating, Ryegrass, Italian ([13]; 16 g ai/ha Postemergence) | Plant response rating, Ryegrass, Italian ([13]; 16 g ai/ha Preemergence) | Plant response rating, Ryegrass, Italian ([13]; 31 g ai/ha Preemergence) | Plant response rating, Sandbur ([14]; 16 g ai/ha Postemergence) | Plant response rating, Sandbur ([14]; 16 g ai/ha Preemergence) | Plant response rating, Sandbur ([14]; 31 g ai/ha Preemergence) | Plant response rating, Sandbur ([14]; Preemergence) | Plant response rating, Arrowleaf Sida ([15]; 16 g ai/ha Preemergence) | Plant response rating, Goosegrass ([16]; 16 g ai/ha Preemergence) | Plant response rating, Goosegrass ([16]; 31 g ai/ha Preemergence)
30: Plant response rating, Ragweed ([5]; 62 g ai/ha Postemergence) | Plant response rating, Beggarticks ([6]; 31 g ai/ha Postemergence) | Plant response rating, Soybean ([10]; 125 g ai/ha Preemergence)
